Measured values as given in paper PMC6278399, “Synthesis and Anticancer Activity Evaluation of Hydrolyzed Derivatives of Panaxnotoginseng Saponins” (Molecules, 2018).

Legend:
[1] = tested on: human colon cancer cells (HT-29); assay: MTT cytotoxicity assay, HT-29; format: cell-based; details: Homo sapiens; HT-29, MTT, 48 h
Description: (§1) In the study, five cancer cell lines (human colon cancer cells (HT-29), gastric cancer cells (BGC-823), cervical cancer cells (Hela), human breast cancer cells (MCF-7), and human lung cancer cells A549)), and two normal cell lines (human gastric epithelial cells (GES-1) and human ovarian epithelial cells (IOSE144)) were used for the evaluation of biological activity. IOSE144 cells were donated by Professor Piao Huri of Yanbian University, all other cells were purchased from the American Type Culture Collection (ATCC, Manassas, VA, USA). Cells were cultured in Dulbecco’s Modified Eagle’s Medium (DMEM), supplemented with 10% heat-inactivated fetal bovine serum (FBS), 1% 100 μg/mL penicillin and 100 μg/mL streptomycin in a humidified atmosphere containing 5% CO2 at 37 °C. Cell viability was measured using the MTT assay. Cells were seeded in 96 well microtiter plates in a volume of 100 μL medium. All compounds tested were dissolved and further diluted in DMSO. After overnight incubation, cells were treated with different test concentrations or carrier solvents alone in a final volume of 100 μL with five replicates each. […] Cells were treated with compound (80, 40, 20, 10, 5 μM) for 48 h. Then, 10 μL of MTT (5 mg/mL) was added to each well and the cells were incubated at 37 °C in the dark for 4 h. Supernatants were removed and formazan crystals were dissolved in DMSO (100 μL/well). The solution was agitated for 10 min, and the absorbance was measured at 490 nm using microplate reader (imark, BIO-RAD, Hercules, CA, USA) to calculate the 50% inhibitory concentration (IC50). Ginsenoside-Rg3, panaxadiol sapogenin (PD), AD-2 (25-OH-PPD) and AD-1 (25-OCH3-PPD) were used as standard reference compounds.

[2] = MTT cytotoxicity assay, GES-1 normal cells; format: cell-based, human; details: human
Description: as §1

[3] = tested on: human breast cancer cells (MCF-7); assay: MTT cytotoxicity assay, MCF-7; format: cell-based; details: Homo sapiens, MCF7; MCF-7, MTT, 48 h
Description: as §1

[4] = tested on: cervical cancer cells (Hela); assay: MTT cytotoxicity assay, Hela; format: cell-based, human; details: Homo sapiens, 48 h
Description: as §1

[5] = tested on: human lung cancer cells A549; assay: MTT cytotoxicity assay, A549; format: cell-based; details: Homo sapiens, 48 h
Description: as §1

[6] = MTT cytotoxicity assay, IOSE144 normal cells; format: cell-based, human; details: human
Description: as §1

[7] = tested on: gastric cancer cells (BGC-823); assay: MTT cytotoxicity assay, BGC-823; format: cell-based, human; details: Homo sapiens; BGC-823, MTT, 48 h
Description: as §1

[8] = tested on: five cancer cell lines (HT-29, BGC-823, Hela, MCF-7, A549); assay: Cytotoxic activity on five cancer cell lines (overall statement); format: cell-based, human; details: MTT
Description: as §1

[9] = GES-1 gastric epithelial cells (normal cell line), GES-1 normal cells, MTT, 48 h, read-out: IC50
[10] = IOSE144 ovarian epithelial cells (normal cell line), IOSE144 normal cells, MTT, 48 h, read-out: IC50

| Compound | IC50 [1] [µM] | IC50 at 48 h [2, 9] [µM] | IC50 [3] [µM] | IC50 [4] [µM] | IC50 [5] [µM] | IC50 at 48 h [6, 10] [µM] | IC50 [7] [µM] | anticancer activity (in words) [8] | melting point [°C] | IC50 at 48 h [2] [µM] | IC50 at 48 h [6] [µM] |
| --- | --- | --- | --- | --- | --- | --- | --- | --- | --- | --- | --- |
| CC(=O)Oc1ccccc1C(=O)O [Acetyl-salicylic acid, reference compound] | 70.26 ± 0.38 | > 100 | 57.1 ± 1.7 | > 100 | 90.5 ± 2.13 | > 100 | 87.67 ± 0.78 |  |  |  |  |
| CC(C)(CCCC(C)(O)C1CCC2(C)C1C(OC(=O)c1ccccc1O)CC1C3(C)CCC(OC(=O)c4ccccc4O)C(C)(C)C3CCC12C)OC(=O)c1ccccc1O [Compound 1a, 20(R)-Dammarane-20-hydroxy-3β,12β,25-tri-yl-2′-hydroxybenzoate] | 9.23 ± 0.08 |  | 20.31 ± 0.11 | 3.23 ± 0.34 | 15.69 ± 0.1 |  | 11.8 ± 0.21 | strong anticancer activity | 192 to 194 | > 100 | > 100 |
| CC(=O)Oc1ccccc1C(=O)OC1CCC2(C)C(CCC3(C)C2CC(OC(=O)c2ccccc2O)C2C(C4(C)CCCC(C)(C)O4)CCC23C)C1(C)C [Compound 1b, 20(R)-Pananxadiol-3β-yl-2′-acetylbenzoate-12β-yl-2′-hydroxybenzoate] | 12.2 ± 0.28 |  | 7.65 ± 0.29 | 11.3 ± 0.14 | 13.26 ± 0.11 |  | 9.65 ± 0.61 | strong anticancer activity | 198 to 200 | > 100 | > 100 |
| COC(C)(C)CCCC(C)(O)C1CCC2(C)C1C(OC(=O)c1ccccc1O)CC1C3(C)CCC(OC(=O)c4ccccc4O)C(C)(C)C3CCC12C [Compound 2a, 20(R)-25-Methoxydammarane-20-hydroxy-3β,12β-di-yl-2′-hydroxybenzoate] | 32.58 ± 0.23 |  | 25.7 ± 0.43 | 16.5 ± 0.23 | 26.45 ± 0.14 |  | 40.9 ± 0.45 |  | 200 to 202 | > 100 | > 100 |
| COC(C)(C)CCCC(C)(O)C1CCC2(C)C1C(O)CC1C3(C)CCC(OC(=O)c4ccccc4O)C(C)(C)C3CCC12C [Compound 4a, 20(R)-25-Methoxydammarane-12β,20-diol-3β-yl-2′-hydroxybenzoate] | 50.6 ± 1.03 |  | 11.1 ± 0.35 | 19.26 ± 0.14 | 35.6 ± 0.56 |  | 13.2 ± 0.18 |  | 246 to 248 | > 100 | > 100 |
| CC(=O)OC1CCC2(C)C(CCC3(C)C2CC(OC(=O)c2ccccc2O)C2C(C4(C)CCCC(C)(C)O4)CCC23C)C1(C)C [Compound 4b, 20(R)-Pananxadiol-3β-o-acetyl-12β-yl-2′-hydroxybenzoate] | 36.12 ± 0.28 |  | 39.4 ± 0.68 | 48.75 ± 0.37 | 25.4 ± 0.77 |  | 50.26 ± 0.39 |  | 238 to 240 | > 100 | > 100 |
| CC(C)(O)CCCC(C)(O)C1CCC2(C)C1C(OC(=O)c1ccccc1O)CC1C3(C)CCC(O)C(C)(C)C3CCC12C [Compound 5a, 20(R)-Dammarane-3β,20,25-triol-12β-yl-2′-hydroxybenzoate] | 18.4 ± 0.47 |  | 18.5 ± 0.23 | 21.6 ± 1.08 | 22.5 ± 0.46 |  | 60.5 ± 1.11 |  | 258 to 260 | > 100 | > 100 |
| CC(=O)Oc1ccccc1C(=O)OC1CC2C3(C)CCC(O)C(C)(C)C3CCC2(C)C2(C)CCC(C3(C)CCCC(C)(C)O3)C12 [Compound 5b, 20(R)-Pananxadiol-3β-hydroxy-12β-yl-2′-acetylbenzoate] | 20.1 ± 0.74 |  | 24.36 ± 0.15 | 18.65 ± 0.13 | 14.1 ± 0.52 |  | 26.24 ± 0.02 |  | 226 to 228 | > 100 | > 100 |
| CC(C)(CCCC(C)(O)C1CCC2(C)C1C(O)CC1C3(C)CCC(OC(=O)c4ccccc4O)C(C)(C)C3CCC12C)OC(=O)c1ccccc1O [Compound 6a, 20(R)-Dammarane-12β, 20-diol-3β, 25-di-yl-2′-hydroxybenzoate] | > 100 |  | > 100 | 20.4 ± 0.36 | 19.4 ± 0.59 |  | > 100 |  | 219 to 221 | > 100 | > 100 |
| CC(=O)OC1CC2C3(C)CCC(OC(=O)c4ccccc4O)C(C)(C)C3CCC2(C)C2(C)CCC(C(C)(O)CCCC(C)(C)O)C12 [Compound 6b, 20(R)-Dammarane-20,25-diol-12β-o-acetyl-3β-yl-2′-hydroxybenzoate] | 15.2 ± 0.41 |  | > 100 | 48.3 ± 2.16 | > 100 |  | 40.6 ± 1.05 |  | 278 to 280 | > 100 | > 100 |
| CC(=O)Oc1ccccc1C(=O)OC1CCC2(C)C(CCC3(C)C2CC(OC(C)=O)C2C(C(C)(O)CCCC(C)(C)O)CCC23C)C1(C)C [Compound 7b, 20(R)-Dammarane-20,25-diol-12β-o-acetyl-3β-yl-2′-acetylbenzoate] | 28.6 ± 0.65 |  | 22.6 ± 1.02 | 19.53 ± 0.19 | 28.4 ± 0.95 |  | 18.4 ± 0.35 |  | 268 to 270 | > 100 | > 100 |
| CC(C)(CCCC(C)(O)C1CCC2(C)C1C(O)CC1C3(C)CCC(O)C(C)(C)C3CCC12C)OC(=O)c1ccccc1O [Compound 8a, 20(R)-Dammarane-3β,12β,20-triol-25-yl-2′-hydroxybenzoate] | > 100 |  | 50.7 ± 1.34 | > 100 | 47.1 ± 0.59 |  | > 100 |  | 223 to 225 | > 100 | > 100 |
| CC(C)(O)CCCC(C)(O)C1CCC2(C)C1C(O)CC1C3(C)CCC(OC(=O)c4ccccc4O)C(C)(C)C3CCC12C [Compound 9a, 20(R)-Dammarane-12β,20,25-triol-3β-yl-2′-hydroxybenzoate] | 11.5 ± 0.23 |  | 50.44 ± 0.11 | 37.3 ± 0.39 | 35.9 ± 0.41 |  | 26.52 ± 0.26 |  | 295 to 297 | > 100 | > 100 |
| CC1(C)CCC[C@](C)(C2CC[C@]3(C)C2[C@H](OC(=O)c2ccccc2O)CC2[C@@]4(C)CC[C@H](OC(=O)c5ccccc5O)C(C)(C)C4CC[C@]23C)O1 (stereo partly drawn) [Compound 10a, 20(R)-Pananxadiol-3β,12β-di-yl-2′-hydroxybenzoate] | 30.25 ± 0.02 |  | 41.4 ± 0.48 | > 100 | 29.5 ± 0.61 |  | > 100 |  | 232 to 234 | > 100 | > 100 |
| CC1(C)CCC[C@](C)(C2CC[C@]3(C)C2[C@H](O)CC2[C@@]4(C)CC[C@H](OC(=O)c5ccccc5O)C(C)(C)C4CC[C@]23C)O1 (stereo partly drawn) [Compound 11a, 20(R)-Pananxadiol-12β-hydroxy-3β-yl-2′-hydroxybenzoate] | 26.5 ± 0.56 |  | 11.5 ± 1.47 | > 100 | 23.8 ± 1.36 |  | 41.9 ± 0.43 |  | 222 to 224 | > 100 | > 100 |
| CC1(C)CCC[C@](C)(C2CC[C@]3(C)C2[C@H](OC(=O)c2ccccc2O)CC2[C@@]4(C)CC[C@H](O)C(C)(C)C4CC[C@]23C)O1 (stereo partly drawn) [Compound 12a, 20(R)-Pananxadiol-3β-hydroxy-12β-yl-2′-hydroxybenzoate] | > 100 |  | 60.1 ± 2.45 | > 100 | 50.2 ± 0.94 |  | > 100 |  | 248 to 250 | > 100 | > 100 |
| CC1(C)CCC[C@](C)([C@H]2CC[C@]3(C)[C@@H]2[C@H](O)C[C@@H]2[C@@]4(C)CC[C@H](O)C(C)(C)[C@@H]4CC[C@]23C)O1 [PD, panaxadiol, reference compound] | 73.4 ± 1.84 | > 100 | 62 ± 1.63 | 72.15 ± 0.52 | 43.1 ± 1.05 | > 100 | 80.13 ± 0.36 |  |  |  |  |
| O=C(O)c1ccccc1O [Salicylic acid, reference compound] | 83.2 ± 1.65 | > 100 | > 100 | > 100 | > 100 | > 100 | > 100 |  |  |  |  |
